Assay results reported in ChEMBL document CHEMBL2074324, “Multidrug resistance P-glycoprotein hampers the access of cortisol but not of corticosterone to mouse and human brain” (Endocrinology, 2001).

Target: ATP-dependent translocase ABCB1 (Mus musculus, UniProt P21447)
Experiment: TP_TRANSPORTER: increase in brain concentration in mdr1a(-/-) mouse
Format: functional, organism-based
Conditions: in vivo

Sequence of ATP-dependent translocase ABCB1 (P21447 whole entry): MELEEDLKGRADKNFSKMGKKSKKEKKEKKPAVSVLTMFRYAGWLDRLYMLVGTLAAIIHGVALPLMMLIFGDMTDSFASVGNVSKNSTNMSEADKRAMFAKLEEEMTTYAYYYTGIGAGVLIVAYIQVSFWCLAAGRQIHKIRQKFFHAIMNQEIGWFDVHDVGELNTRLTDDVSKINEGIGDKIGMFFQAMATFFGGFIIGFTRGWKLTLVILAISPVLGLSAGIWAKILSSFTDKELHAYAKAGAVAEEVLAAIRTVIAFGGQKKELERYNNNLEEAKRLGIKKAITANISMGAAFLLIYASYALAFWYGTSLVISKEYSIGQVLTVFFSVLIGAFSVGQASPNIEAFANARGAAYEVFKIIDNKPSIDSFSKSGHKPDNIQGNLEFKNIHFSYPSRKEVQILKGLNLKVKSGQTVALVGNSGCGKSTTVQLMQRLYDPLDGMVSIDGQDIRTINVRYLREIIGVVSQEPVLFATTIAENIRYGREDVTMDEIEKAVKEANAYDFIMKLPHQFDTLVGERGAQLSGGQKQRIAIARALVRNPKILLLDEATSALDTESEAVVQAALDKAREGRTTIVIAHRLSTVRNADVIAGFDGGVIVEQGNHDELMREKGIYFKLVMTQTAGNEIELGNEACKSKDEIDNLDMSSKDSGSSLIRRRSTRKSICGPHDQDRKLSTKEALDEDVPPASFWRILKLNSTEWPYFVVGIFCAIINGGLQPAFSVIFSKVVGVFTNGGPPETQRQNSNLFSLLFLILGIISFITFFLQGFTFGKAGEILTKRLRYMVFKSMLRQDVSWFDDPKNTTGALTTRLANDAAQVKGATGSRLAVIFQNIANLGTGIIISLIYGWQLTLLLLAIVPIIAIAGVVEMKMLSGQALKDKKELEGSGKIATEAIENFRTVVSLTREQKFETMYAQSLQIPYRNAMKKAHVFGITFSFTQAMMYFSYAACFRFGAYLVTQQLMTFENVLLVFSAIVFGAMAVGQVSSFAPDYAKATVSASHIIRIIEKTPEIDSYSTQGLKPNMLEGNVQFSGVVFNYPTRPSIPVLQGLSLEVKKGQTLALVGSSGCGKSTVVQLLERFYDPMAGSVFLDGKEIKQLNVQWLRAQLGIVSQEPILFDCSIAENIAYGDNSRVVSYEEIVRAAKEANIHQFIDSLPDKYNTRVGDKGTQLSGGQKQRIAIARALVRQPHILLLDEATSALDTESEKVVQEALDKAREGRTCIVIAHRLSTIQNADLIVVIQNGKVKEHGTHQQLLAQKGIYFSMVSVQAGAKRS

- Activity: substrate [+]
Structure (SMILES): C[C@]12CCC(=O)C=C1CC[C@@H]1[C@@H]2[C@@H](O)C[C@@]2(C)[C@H]1CC[C@]2(O)C(=O)CO [HYDROCORTISONE]
